Results reported in PMC10145651, “Modulation of the 5-Lipoxygenase Pathway by Chalcogen-Containing Inhibitors of Leukotriene A4 Hydrolase” (International Journal of Molecular Sciences, 2023).
Entries after “also recorded” stand apart in the source; their conditions may differ.

Legend:
[1] = molecular target: T1, recombinant soluble epoxide hydrolase (sEH) (Homo sapiens, UniProt P34913); assay: Inhibition assay with soluble epoxide hydrolase (PHOME); format: biochemical; conditions: for effect on the activity of recombinant soluble epoxide hydrolase (sEH): 50 μM PHOME
T1 construct: made in house
T1 sequence (P34913 1-555): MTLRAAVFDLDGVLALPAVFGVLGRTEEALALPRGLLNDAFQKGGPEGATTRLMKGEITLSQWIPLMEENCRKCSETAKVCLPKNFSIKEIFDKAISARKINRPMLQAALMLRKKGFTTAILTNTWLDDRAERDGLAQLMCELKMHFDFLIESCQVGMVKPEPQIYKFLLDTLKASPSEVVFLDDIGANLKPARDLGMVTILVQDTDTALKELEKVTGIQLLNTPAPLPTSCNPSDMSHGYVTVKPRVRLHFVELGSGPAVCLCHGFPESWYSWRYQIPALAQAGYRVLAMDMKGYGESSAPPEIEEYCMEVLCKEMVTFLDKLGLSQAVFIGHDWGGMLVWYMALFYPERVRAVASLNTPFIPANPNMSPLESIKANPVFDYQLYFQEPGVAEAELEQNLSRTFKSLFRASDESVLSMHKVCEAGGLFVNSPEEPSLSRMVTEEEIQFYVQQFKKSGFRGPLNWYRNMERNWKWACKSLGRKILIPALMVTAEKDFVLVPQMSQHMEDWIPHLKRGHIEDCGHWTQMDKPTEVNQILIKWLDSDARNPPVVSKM
Procedure: The human recombinant soluble epoxide hydrolase (sEH) was expressed and purified as described before.
Pre-incubation with 0.5 µg/mL of sEH and test compounds or 0.1% (v/v) vehicle was performed in 25 mM Tris-HCl buffer (pH 7.0) containing 0.1 mg/mL bovine serum albumin at room temperature for 10 min. Reaction was initiated with 50 μM PHOME, a non-fluorescent compound that is enzymatically converted into fluorescent 6-methoxy-naphtaldehyde, at room temperature for 60 min. Reactions were stopped with 200 mM ZnSO4 and fluorescence signals were recorded at 330 nm/465 nm (ex/em). If required, a possible fluorescence of test compounds was subtracted from the read-out.

[2] = molecular target: T2, LTA4H (Homo sapiens, UniProt P09960); design: made in house; host or cells: Escherichia coli JM101; method as in PMID 24591641; conditions: previously demonstrated; cited from earlier work
T2 sequence (P09960 1-611): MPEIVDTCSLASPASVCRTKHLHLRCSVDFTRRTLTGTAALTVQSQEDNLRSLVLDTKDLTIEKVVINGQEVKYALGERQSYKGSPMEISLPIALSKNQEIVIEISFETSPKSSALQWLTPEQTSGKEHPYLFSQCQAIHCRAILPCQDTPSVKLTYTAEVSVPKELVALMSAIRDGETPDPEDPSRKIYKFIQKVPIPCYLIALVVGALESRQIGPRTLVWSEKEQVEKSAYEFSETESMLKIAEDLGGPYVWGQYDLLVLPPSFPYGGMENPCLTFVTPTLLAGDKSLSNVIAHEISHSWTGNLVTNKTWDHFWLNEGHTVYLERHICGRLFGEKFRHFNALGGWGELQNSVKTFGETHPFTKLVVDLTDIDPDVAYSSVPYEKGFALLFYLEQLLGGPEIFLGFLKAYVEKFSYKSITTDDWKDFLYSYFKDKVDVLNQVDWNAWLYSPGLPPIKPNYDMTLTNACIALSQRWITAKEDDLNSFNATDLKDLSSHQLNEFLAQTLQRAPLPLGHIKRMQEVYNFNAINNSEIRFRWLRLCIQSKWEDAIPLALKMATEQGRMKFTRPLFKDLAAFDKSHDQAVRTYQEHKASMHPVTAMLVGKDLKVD

[3] = molecular target: T2, LTA4H; assay: Aminopeptidase assay of LTA4H with the PGP substrate; format: biochemical; design: made in house; host or cells: Escherichia coli JM101; conditions: 800 μM PGP, 0–100 μM inhibitor
Procedure: The reaction was stopped by addition of 150 μL of acetic acid. To detect and quantify released N-terminal proline, incubations with 150 μL of ninhydrin solution (25 mg/mL) were carried out at 100 °C for 45 min. Samples were cooled down and purple-colored ninhydrin conjugates were extracted with 350 μL toluene and the upper phase was transferred to a polypropylene 96-well plate (Greiner Bio-One, Kremsmünster, Austria). All incubations were carried out in triplicates and absorbance was measured at 495 nm using a TECAN Infinite M200 plate reader. Specific peptidase activities were determined based on the standard curve of free L-proline (Figure S10).

effect on the activity of soluble epoxide hydrolase (sEH) at 10 µM ([1]; 10 µM inhibitor) | SMILES | effect on the activity of recombinant soluble epoxide hydrolase (sEH) [1] | effect on PGP cleavage by LTA4H [2] | effect on the cleavage of the PGP tripeptide by recombinant LTA4H [3]
– | Nc1nc(-c2ccc(Cc3ccccc3)cc2)cs1 [ARM1, 4-(4-benzylphenyl) thiazol-2-amine, reference compound] | did not have any effect; also recorded: do not affect | remains unaffected | –
attenuated | Nc1nc(-c2ccc(Cc3ccccc3)cc2)co1 [TTO, 4-(4-benzylphenyl) oxazol-2-amine] | at higher concentrations may affect | – | did not influence
– | Nc1nc(-c2ccc(Cc3ccccc3)cc2)c[se]1 [TTSe, 4-(4-benzylphenyl) selenazol-2-amine] | did not have any effect; also recorded: do not affect | – | did not influence
